# Source: ChEMBL document CHEMBL1201862, “PubChem BioAssay data set” (2004)
# Activity calls are given as the source filed them.
# Legend:
# Escherichia coli = assay: microbe, parasite or virus in culture
# [1] = target: Delta-type opioid receptor (Homo sapiens, UniProt P41143); assay: Counterscreen for agonists of heterodimerization of the mu 1 (OPRM1) and delta 1 (OPRD1) opioid receptors: Luminescence-based cell-based high throughput dose response assay to identify agonists of OPRD1 homodimerization. [Related pubchem assays (depositor defined):AID504326, AID504355, AID504692, AID504904, AID504905]; assay type: functional
# Mu-type opioid receptor = Mu-type opioid receptor (Homo sapiens, UniProt P35372); assay: Counterscreen for agonists of heterodimerization of the mu 1 (OPRM1) and delta 1 (OPRD1) opioid receptors: Luminescence-based cell-based high throughput dose response assay to identify agonists of OPRM1 homodimerization.; assay type: functional;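 further: U2OS cells expressing OPRM1 and beta-arrestin as split beta-galactosidase partners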
# [2] = target: 5-hydroxytryptamine receptor 5A (Homo sapiens, UniProt P47898); assay: Counterscreen for agonists of OPRM1-OPRD1 heterodimerization: luminescence-based cell-based high throughput dose response assay to identify agonists of 5-hydroxytryptamine (serotonin) 5A receptor (HTR5A). [Related pubchem assays (depositor defined):AID504326, AID504355, AID504692, AID504904, AID504905]; assay type: functional
# [3] = target: T1, Short transient receptor potential channel 4 (Mus musculus, UniProt Q9QUQ5); assay: mouse TRPC4 channel activators, dose response, cell-based, HEK293 TRPC4/mu-opioid, Fluo-4 calcium (AID 434937); assay type: functional
# T1 sequence (Q9QUQ5 whole entry): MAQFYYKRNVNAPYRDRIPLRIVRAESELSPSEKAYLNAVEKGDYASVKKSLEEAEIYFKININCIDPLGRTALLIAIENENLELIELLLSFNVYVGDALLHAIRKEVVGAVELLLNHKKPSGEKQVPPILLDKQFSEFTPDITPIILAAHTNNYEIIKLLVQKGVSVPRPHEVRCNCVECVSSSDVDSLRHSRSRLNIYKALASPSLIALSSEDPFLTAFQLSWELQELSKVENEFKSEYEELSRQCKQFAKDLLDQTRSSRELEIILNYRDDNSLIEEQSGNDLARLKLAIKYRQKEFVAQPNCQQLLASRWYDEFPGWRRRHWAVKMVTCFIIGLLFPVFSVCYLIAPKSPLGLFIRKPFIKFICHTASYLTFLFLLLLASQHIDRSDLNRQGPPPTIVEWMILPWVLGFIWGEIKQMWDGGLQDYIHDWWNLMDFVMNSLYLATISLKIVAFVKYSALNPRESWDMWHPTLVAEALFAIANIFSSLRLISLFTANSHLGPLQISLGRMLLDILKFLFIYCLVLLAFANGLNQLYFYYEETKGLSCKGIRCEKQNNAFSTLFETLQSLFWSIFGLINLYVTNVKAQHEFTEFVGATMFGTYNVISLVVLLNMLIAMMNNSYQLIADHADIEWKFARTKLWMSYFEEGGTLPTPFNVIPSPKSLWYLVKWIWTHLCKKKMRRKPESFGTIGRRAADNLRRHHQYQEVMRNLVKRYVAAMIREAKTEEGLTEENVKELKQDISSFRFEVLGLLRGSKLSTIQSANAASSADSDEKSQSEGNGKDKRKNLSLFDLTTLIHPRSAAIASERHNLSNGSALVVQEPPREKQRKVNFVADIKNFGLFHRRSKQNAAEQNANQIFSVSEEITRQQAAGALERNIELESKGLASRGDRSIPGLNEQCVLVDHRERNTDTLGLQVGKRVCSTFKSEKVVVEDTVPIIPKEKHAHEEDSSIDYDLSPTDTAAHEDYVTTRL
# HEK293 [4] = assay: NOD1 signaling inhibitors, primary screen, cell-based, luminescence, uHTS (AID 1578); assay type: functional; conditions: Homo sapiens
# HEK293 [5] = assay: cells; assay type: functional, cell-based; conditions: Homo sapiens
# [6] = target: T2, Heat shock factor protein 1 (Mus musculus, UniProt P38532); assay: inhibition of MG132-induced HSE-luciferase signal, confirmation, cell-based, NIH3T3, luminescence, dose retest (AID 2382); assay type: functional;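 further: NIH3T3 fibroblasts with HSF1-driven luciferase reporter stressed by proteasome inhibitor MG132; luminescence from HSF1-driven luciferase expression after 8 hours of MG132 stress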
# T2 sequence (P38532 whole entry): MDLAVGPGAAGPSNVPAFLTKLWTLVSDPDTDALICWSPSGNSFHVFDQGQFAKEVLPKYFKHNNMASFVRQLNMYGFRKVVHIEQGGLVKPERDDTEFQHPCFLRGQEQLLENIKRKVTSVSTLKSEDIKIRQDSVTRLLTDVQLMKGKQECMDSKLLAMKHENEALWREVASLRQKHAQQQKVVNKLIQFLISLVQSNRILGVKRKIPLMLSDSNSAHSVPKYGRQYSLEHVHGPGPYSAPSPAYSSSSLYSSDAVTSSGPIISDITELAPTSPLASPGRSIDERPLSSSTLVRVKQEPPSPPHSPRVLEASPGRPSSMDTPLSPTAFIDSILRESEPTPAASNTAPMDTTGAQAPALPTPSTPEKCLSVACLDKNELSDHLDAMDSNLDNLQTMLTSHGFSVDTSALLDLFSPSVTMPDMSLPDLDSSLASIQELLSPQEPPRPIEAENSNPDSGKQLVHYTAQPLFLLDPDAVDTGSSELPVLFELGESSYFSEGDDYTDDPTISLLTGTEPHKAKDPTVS
# HEK293 [7] = assay: cells; assay type: functional, cell-based; conditions: Homo sapiens; remark: listed apart in the source
# [8] = target: Nucleotide-binding oligomerization domain-containing protein 2 (Homo sapiens, UniProt Q9HC29); assay: NOD2 signaling inhibitors, cell-based, luminescence, uHTS, HEK293 (AID 1566); assay type: functional
# HEK293 [9] = assay: NOD2 signaling inhibitors in MDP-stimulated cells, cell-based, uHTS, luminescence (AID 2001); assay type: functional; conditions: Homo sapiens
# HEK293 [10] = assay: cells; assay type: functional, cell-based; conditions: Homo sapiens; remark: listed apart in the source
# Tumor necrosis factor = Tumor necrosis factor (Homo sapiens, UniProt P01375); assay: TNFa-triggered NF-kB activation inhibitors, SAR follow-up, cell-based, revised (AID 2337); assay type: functional
# [11] = target: T3, Nucleotide-binding oligomerization domain-containing protein 1 (Homo sapiens, UniProt Q9Y239); assay: NOD1 signaling inhibitors, SAR follow-up, revised (AID 2333); assay type: functional
# T3 sequence (Q9Y239 whole entry): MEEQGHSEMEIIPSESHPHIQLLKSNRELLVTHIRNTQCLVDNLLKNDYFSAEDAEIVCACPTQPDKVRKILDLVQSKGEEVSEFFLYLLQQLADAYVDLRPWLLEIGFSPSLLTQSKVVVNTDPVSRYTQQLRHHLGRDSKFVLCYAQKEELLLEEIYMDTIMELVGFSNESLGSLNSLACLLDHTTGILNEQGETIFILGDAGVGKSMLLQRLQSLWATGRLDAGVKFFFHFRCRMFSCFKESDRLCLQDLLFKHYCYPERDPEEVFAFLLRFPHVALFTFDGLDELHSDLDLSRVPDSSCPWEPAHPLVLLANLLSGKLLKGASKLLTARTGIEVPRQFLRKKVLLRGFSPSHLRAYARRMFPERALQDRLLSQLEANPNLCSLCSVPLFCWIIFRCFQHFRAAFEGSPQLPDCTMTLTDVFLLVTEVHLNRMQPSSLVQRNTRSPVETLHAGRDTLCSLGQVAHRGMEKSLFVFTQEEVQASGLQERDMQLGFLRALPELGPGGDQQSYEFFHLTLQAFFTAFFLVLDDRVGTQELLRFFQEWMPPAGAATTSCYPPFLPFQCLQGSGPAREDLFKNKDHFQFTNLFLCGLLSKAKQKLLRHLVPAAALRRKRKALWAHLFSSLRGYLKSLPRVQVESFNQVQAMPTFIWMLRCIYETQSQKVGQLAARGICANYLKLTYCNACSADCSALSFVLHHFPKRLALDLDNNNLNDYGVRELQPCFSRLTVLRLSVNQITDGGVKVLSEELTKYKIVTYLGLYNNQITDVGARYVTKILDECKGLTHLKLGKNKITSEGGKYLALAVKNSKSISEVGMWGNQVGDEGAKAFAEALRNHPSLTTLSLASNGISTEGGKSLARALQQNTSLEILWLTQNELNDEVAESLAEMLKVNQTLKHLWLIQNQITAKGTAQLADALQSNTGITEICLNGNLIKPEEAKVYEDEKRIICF
# [12] = Shn3 3'UTR reporter inhibitors, dose response, cell-based, Clone20 osteoblasts, firefly luciferase, cherry-picked (AID 624132); assay type: functional;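 further: firefly luciferase luminescence from reporter carrying the Shn3 3'UTR in osteoblasts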
# [13] = control 3'UTR Renilla luciferase suppression, dose response, counter-screen for Shn3 inhibitor project, cell-based, Clone20-Shn3RL, cherry-picked (AID 624133); assay type: functional
# HEK293 [14] = assay: cells; conditions: Homo sapiens
# [15] = inhibitors of firefly luciferase expression or activity, dose response, H4 neuroglioma cells, luminescence (AID 1990); assay type: functional, cell-based
# [16] = Luminescence Cell-Based Dose Response HTS to Identify Inhibitors of 5'UTR Stem-Loop Driven Prion Protein mRNA Translation in H4 Neuroglioblastoma Cells. [Related pubchem assays: 1827 (Project Summary), 1813 (Primary HTS)]; assay type: functional
# [17] = inhibitors of SNCA 5'UTR-driven reporter translation, confirmation, H4 neuroglioma cells, luminescence (AID 1988); assay type: functional, cell-based
# Cytochrome P450 1A2 = target: T4, Cytochrome P450 1A2 (Homo sapiens, UniProt P05177);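 further: PubChem cytochrome P450 panel assay, CYP1A2 panel member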
# T4 sequence (P05177 whole entry): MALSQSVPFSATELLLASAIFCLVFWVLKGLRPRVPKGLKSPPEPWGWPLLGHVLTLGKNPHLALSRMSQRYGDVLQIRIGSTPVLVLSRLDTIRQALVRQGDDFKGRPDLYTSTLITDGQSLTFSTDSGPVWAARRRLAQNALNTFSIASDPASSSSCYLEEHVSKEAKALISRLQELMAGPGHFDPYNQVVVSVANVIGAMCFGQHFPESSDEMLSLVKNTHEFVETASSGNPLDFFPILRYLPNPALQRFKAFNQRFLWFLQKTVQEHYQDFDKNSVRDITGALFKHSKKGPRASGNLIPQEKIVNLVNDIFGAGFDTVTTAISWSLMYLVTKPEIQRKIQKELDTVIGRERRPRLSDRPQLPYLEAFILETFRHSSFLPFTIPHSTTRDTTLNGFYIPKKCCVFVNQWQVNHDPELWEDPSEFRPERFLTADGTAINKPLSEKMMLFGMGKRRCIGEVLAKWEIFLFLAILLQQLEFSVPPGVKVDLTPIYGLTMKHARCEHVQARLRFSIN
# Cytochrome P450 3A4 = Cytochrome P450 3A4 (Homo sapiens, UniProt P08684);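 further: CYP3A4 tested as one member of a cytochrome P450 panel screen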
# Cytochrome P450 2D6 = Cytochrome P450 2D6 (Homo sapiens, UniProt P10635);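 further: CYP2D6 member of a cytochrome P450 panel assay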
# Cytochrome P450 2D6, sequence (P10635 whole entry): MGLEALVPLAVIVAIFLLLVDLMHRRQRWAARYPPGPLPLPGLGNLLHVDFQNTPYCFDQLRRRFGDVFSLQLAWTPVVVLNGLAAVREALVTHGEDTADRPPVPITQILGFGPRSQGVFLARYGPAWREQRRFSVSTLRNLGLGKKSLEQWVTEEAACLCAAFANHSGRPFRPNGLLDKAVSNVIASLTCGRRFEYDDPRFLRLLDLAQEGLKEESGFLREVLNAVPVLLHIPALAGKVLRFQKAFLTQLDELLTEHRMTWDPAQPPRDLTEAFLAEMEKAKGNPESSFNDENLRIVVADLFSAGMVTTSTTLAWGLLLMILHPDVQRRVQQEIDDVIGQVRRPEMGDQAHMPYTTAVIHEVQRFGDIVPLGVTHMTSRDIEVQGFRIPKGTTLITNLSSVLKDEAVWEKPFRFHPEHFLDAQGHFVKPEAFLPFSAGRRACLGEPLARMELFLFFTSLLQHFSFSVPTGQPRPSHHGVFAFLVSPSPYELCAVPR
# Delta-type opioid receptor, sequence (P41143 whole entry): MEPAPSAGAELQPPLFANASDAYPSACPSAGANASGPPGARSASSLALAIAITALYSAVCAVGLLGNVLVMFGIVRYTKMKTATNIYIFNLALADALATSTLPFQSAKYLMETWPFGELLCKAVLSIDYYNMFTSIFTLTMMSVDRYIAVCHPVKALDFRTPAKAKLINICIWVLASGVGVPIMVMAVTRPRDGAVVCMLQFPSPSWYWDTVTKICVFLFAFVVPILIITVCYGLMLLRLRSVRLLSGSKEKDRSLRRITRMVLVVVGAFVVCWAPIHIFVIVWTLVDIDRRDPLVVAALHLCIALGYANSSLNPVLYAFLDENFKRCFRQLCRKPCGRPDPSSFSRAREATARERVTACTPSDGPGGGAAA
# Mu-type opioid receptor, sequence (P35372 whole entry): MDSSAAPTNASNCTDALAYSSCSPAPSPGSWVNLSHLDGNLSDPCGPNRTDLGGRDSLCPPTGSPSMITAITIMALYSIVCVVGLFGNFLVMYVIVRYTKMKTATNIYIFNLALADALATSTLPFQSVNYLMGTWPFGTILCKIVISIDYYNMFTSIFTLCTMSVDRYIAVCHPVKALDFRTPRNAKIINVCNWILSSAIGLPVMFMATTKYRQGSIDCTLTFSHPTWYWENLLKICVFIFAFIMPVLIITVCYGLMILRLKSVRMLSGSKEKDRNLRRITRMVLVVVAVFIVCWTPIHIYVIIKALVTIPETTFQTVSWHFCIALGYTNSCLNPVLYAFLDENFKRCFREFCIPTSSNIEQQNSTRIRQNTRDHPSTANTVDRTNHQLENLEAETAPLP
# 5-hydroxytryptamine receptor 5A, sequence (P47898 whole entry): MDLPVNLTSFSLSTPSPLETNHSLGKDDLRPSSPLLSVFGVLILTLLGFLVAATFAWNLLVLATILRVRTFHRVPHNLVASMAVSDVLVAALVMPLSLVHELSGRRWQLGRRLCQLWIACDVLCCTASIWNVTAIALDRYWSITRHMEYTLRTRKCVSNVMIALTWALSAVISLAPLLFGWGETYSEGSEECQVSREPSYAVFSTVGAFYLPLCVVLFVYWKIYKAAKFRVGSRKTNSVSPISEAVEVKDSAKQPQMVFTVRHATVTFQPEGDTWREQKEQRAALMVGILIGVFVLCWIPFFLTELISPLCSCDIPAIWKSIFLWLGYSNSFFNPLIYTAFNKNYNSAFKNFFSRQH
# Nucleotide-binding oligomerization domain-containing protein 2, sequence (Q9HC29 whole entry, the tested form may be a part): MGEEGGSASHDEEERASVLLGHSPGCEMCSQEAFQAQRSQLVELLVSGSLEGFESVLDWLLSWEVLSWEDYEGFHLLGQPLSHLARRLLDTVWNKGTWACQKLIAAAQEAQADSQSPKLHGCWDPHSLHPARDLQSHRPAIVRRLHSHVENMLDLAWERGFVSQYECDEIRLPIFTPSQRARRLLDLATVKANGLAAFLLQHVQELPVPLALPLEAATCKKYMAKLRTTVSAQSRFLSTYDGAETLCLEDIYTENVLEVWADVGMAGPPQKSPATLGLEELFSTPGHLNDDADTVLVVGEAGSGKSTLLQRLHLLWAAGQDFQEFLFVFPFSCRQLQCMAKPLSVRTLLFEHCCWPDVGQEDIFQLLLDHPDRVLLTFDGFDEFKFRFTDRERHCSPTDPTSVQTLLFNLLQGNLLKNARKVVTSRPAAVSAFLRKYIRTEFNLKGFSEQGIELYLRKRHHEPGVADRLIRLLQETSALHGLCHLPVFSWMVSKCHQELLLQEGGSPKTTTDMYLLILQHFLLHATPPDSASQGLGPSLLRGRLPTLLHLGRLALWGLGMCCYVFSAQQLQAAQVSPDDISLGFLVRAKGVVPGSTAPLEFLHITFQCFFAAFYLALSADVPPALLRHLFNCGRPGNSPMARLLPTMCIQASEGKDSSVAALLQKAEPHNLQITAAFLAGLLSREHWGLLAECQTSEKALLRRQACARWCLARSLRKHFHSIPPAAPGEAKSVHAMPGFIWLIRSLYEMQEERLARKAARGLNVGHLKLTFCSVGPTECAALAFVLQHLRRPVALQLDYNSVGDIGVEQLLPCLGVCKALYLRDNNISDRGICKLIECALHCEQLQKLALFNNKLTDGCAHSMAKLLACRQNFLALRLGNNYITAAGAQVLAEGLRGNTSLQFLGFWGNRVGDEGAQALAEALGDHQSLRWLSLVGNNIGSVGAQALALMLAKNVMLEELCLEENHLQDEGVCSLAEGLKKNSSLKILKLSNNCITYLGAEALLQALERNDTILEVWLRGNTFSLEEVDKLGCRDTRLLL
# Tumor necrosis factor, sequence (P01375 whole entry, the tested form may be a part): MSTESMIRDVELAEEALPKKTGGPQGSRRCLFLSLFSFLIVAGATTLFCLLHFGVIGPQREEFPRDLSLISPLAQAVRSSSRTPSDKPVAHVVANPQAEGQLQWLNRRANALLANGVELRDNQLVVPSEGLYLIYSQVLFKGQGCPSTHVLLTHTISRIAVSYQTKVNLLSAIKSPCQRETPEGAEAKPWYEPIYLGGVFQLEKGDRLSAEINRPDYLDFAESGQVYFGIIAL
# Cytochrome P450 3A4, sequence (P08684 whole entry): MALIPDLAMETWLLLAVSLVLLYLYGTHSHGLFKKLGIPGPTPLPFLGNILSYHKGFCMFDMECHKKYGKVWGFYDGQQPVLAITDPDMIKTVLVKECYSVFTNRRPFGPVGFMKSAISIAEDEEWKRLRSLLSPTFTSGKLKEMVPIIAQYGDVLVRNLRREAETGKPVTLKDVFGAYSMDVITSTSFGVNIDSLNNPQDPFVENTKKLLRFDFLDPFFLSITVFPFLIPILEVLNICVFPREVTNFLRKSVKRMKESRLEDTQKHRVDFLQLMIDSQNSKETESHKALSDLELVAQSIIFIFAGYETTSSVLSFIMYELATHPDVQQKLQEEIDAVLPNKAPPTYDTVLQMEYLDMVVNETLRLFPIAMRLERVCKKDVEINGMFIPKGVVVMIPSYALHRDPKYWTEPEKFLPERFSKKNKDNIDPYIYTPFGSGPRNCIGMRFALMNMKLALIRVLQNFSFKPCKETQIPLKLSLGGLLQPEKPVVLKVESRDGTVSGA
smiles,measurement,setting,value
COC(=O)c1ccc(CNC(=O)C2CCC(=O)N(Cc3ccccn3)C2)cc1 (stereo unspecified),AC50,Escherichia coli,131 µM (active)
CN(C)C(CNC(=O)c1ccc(Br)cc1)c1ccco1 (stereo unspecified),EC50,[1],> 92.5 µM (inactive)
same,EC50,Mu-type opioid receptor,> 92.5 µM (inactive)
same,EC50,[2],> 92.5 µM (inactive)
O=C(c1sc2ccccc2c1Cl)N(Cc1ccco1)C1CCS(=O)(=O)C1 (stereo unspecified),EC50,[3],2.11 µM (active)
same,EC50,[1],29.2 µM (inactive)
same,EC50,Mu-type opioid receptor,> 92.5 µM (inactive)
same,EC50,[2],> 92.5 µM (inactive)
COC(=O)C1=C(C)N(CCCC(=O)O)C(=O)NC1c1ccccc1OS(=O)(=O)c1ccccc1[N+](=O)[O-] (stereo unspecified),EC50,[1],15.5 µM (inactive)
same,EC50,Mu-type opioid receptor,> 92.5 µM (inactive)
same,EC50,[2],> 92.5 µM (inactive)
Cc1cc(C(=O)COC(=O)c2ccccc2Br)c(C)n1CC1CCCO1 (stereo unspecified),EC50,HEK293 [4],> 20 µM (inactive)
same,IC50,HEK293 [5],< 0.312 µM (active)
same,EC50,[6],< 0.16 µM (active)
same,IC50,HEK293 [7],> 20 µM (inactive)
same,EC50,[8],0.46 µM (active)
same,IC50,HEK293 [9],0.036 µM (active)
same,IC50,HEK293 [10],> 20 µM (inactive)
same,IC50,Tumor necrosis factor,0.0456 µM (active)
same,IC50,[11],4.8 µM (active)
same,AC50,[12],> 70 µM (inactive)
same,AC50,[13],21.4 µM (active)
same,IC50,HEK293 [14],> 20 µM (inactive)
COc1cc(C(=O)Nc2sc3c(c2C(=O)O)CCC(C)C3)cc(OC)c1OC (stereo unspecified),EC50,[15],> 120 µM (not active)
same,EC50,HEK293 [4],4.16 µM (active)
same,IC50,HEK293 [5],> 20 µM (inactive)
same,EC50,[16],> 120 µM (not active)
same,EC50,[17],12.8 µM (active)
same,IC50,HEK293 [7],> 20 µM (inactive)
same,EC50,[8],2.24 µM (active)
same,IC50,HEK293 [9],9.76 µM (active)
same,IC50,HEK293 [10],> 20 µM (inactive)
same,IC50,Tumor necrosis factor,7.41 µM (active)
same,IC50,[11],5.19 µM (active)
same,IC50,HEK293 [14],> 20 µM (inactive)
COC(=O)C1=C(C)N(CCCC(=O)O)C(=O)NC1c1ccccc1OS(=O)(=O)c1ccc([N+](=O)[O-])cc1 (stereo unspecified),EC50,[1],11.7 µM (inactive)
same,EC50,Mu-type opioid receptor,> 92.4 µM (inactive)
same,EC50,[2],> 92.4 µM (inactive)
COC(=O)c1cc(OC)c(OC)cc1N=C(S)N1CCN(C)CC1,AC50,Cytochrome P450 1A2,11.2 µM (inconclusive)
same,AC50,Cytochrome P450 3A4,14.1 µM (inconclusive)
same,AC50,Cytochrome P450 2D6,inconclusive
